Drawing on publication PMC10709440, “High-throughput ligand profile characterization in novel cell lines expressing seven heterologous insect olfactory receptors for the detection of volatile plant biomarkers” (Scientific Reports, 2023), this text covers activity for 1 compound.

The target of one assay is T1, Drosophila OR13a (Drosophila melanogaster, UniProt Q9VXL0).
T1 construct: expressed in transfected cells
T1 sequence (Q9VXL0 1-418): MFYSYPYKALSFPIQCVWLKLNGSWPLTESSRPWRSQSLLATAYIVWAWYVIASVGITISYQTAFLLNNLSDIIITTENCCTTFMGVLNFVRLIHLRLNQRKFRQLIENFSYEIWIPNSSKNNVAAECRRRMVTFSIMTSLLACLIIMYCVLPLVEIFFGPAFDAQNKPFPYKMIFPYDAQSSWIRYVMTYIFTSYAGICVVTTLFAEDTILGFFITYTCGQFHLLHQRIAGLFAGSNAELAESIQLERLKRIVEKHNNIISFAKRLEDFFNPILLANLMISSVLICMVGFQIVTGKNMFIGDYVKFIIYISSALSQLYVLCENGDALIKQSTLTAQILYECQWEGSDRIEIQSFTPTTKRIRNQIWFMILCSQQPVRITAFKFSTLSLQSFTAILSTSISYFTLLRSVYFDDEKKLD
T1 sequence (Q9VNB5 1-486 partner): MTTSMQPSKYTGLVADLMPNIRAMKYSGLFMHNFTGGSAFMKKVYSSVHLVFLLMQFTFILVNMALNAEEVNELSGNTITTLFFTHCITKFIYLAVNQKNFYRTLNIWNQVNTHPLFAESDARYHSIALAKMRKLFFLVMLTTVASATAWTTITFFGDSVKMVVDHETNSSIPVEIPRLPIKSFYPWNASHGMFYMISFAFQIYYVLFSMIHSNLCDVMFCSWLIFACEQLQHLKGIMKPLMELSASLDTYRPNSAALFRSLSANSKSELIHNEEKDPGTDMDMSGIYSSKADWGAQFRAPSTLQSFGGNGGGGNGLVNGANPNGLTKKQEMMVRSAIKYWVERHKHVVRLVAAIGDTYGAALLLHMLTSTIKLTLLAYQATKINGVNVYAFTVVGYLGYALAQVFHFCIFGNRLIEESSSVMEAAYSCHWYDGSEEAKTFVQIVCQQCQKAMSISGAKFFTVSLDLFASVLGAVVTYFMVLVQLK
Nature of the assay: cell-based. Further details: GCaMP6 calcium fluorescence in stable HEK293 OR+ORCO lines; peak dF normalised to 50 uM VUAA1 (=1). The note with it: HEK293; relative to 50 uM VUAA1 response; below 0.05 set to 0; read-out: % activation. The procedure: (§1) Twelve thousand to 18,000 cells were plated into each well of a black wall, transparent bottom 384-well microplate (Greiner) 48 h or 72 h before the measurements and were simultaneously treated with 1 μg/mL doxycycline. Typically, three columns were filled with one OR expressing cell line, each row was treated with the same compound (three technical replicates for each OR), and each responsive VOC-OR combination was measured at least three times on different days. The plate has 24 columns, thus we could record responses in up to eight different cell lines in each plate. On the day of the experiment, the growth medium was replaced with 20 µL assay buffer/well (140 mM NaCl, 5 mM KCl, 2 mM CaCl2, 1 mM MgCl2, 5 mM HEPES-Na, 20 mM glucose, pH 7.3, 340 mOsm). […] Baseline fluorescence (F0) was recorded for 5 s, after which 7 µL VOC buffer (140 mM NaCl, 5 mM KCl, 2 mM CaCl2, 1 mM MgCl2, 5 mM HEPES-Na, 31 mM glucose, 0.1% DMSO, pH 7.3, 340 mOsm) was injected into each well in one row and the fluorescence response was recorded for an additional 30 s, at a rate of one read/sec. VOC solutions (VOC buffer with 4× concentration of the final measured VOC concentration, 9 µL/well was injected) were measured on the same wells in a second round with the same protocol. Each individual concentration of a specific VOC sample was recorded in three wells for the same cell line on the same microplate. The raw data were exported in xls file format, F0 and FMAX values, and the fluorescence intensity changes (∆F) were calculated in Excel (Microsoft) (Supplementary file Data summary.xlsx) using the following equation: ΔF=FMAX-F0/F0 (see also Fig. 1C). On each plate, we recorded the response of each cell line to 50 µM VUAA1. The average of these ∆F values of each cell line were used to calculate the VUAA1-normalized values for the rest of the plate, by dividing VOC response ∆F values by the average VUAA1 response ∆F value of the corresponding OR cell line. Each VOC-OR combination was measured three times as tec The recorded FMAX, F0, ∆F, VUAA1-normalized ∆F values, as well as the OR name, the name of the tested sample, and the final concentration for each well were copied into supplementary file Data summary.xlsx, that was used to summarize all the plates recorded. Here, the averages of the measurements were calculated for each receptor-VOC-concentration combination. […] Each VOC was measured at 1, 10, and 100 µM final concentration on each receptor. VUAA1-normalized response was calculated as described in methods. Values are averages of at least three biological replicates for responsive combinations and two for the non-responsive combinations. The chemical structures of the strong and medium ligands are shown for each cell line. Heat map: white-green colors correspond to the lowest-highest values measured for each cell line.

Another assay deals with T2, Drosophila OR49b (Drosophila melanogaster, UniProt Q9V6H2).
T2 construct: expressed in transfected cells
T2 sequence (Q9V6H2 1-375): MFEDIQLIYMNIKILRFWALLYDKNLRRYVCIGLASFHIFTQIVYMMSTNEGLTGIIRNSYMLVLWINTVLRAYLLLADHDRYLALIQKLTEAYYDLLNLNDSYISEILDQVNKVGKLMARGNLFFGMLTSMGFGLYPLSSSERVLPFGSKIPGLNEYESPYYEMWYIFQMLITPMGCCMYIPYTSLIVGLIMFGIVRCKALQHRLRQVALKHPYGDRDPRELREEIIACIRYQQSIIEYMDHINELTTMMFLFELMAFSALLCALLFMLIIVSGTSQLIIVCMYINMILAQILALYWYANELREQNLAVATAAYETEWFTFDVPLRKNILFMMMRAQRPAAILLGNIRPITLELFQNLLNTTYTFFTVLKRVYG
T2 sequence (Q9VNB5 1-486 partner): T1 sequence (Q9VNB5 1-486 partner)
Nature of the assay: cell-based. Also on record: GCaMP6 calcium fluorescence in stable HEK293 OR+ORCO lines; peak dF normalised to 50 uM VUAA1 (=1). To be noted: HEK293; relative to 50 uM VUAA1 response; below 0.05 set to 0; read-out: % activation. The procedure:
as §1

`CC/C=C/CCO` [e3-hexenol]: on Drosophila OR13a, the activity at 1 µM is 0%, the activity at 10 µM stood at 0% and the activity at 100 µM worked out at 7.11%. At Drosophila OR49b, the activity at 1 µM worked out at 0%, the activity at 10 µM was 0% and the activity at 100 µM is 7.89%.
